This is an account of results in patent US7378428B2, “Nitrogen-containing bicyclic compounds and drugs containing the same as the active ingredient” (Ono Pharmaceutical Co., Ltd., priority 2002, dated 2008).

pIC50: −log10 of the molar value.

T1 sequence (P34972 whole entry): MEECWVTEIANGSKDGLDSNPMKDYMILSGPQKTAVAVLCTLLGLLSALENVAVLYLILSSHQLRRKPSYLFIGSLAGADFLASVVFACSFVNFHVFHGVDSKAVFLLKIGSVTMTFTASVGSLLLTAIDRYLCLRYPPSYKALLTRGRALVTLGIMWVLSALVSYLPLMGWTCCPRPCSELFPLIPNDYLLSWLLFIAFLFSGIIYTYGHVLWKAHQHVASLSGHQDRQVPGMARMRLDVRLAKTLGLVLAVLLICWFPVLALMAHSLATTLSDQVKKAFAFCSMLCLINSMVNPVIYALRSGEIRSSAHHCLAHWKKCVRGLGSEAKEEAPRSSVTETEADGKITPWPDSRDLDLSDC
T2 sequence (Q13946 whole entry): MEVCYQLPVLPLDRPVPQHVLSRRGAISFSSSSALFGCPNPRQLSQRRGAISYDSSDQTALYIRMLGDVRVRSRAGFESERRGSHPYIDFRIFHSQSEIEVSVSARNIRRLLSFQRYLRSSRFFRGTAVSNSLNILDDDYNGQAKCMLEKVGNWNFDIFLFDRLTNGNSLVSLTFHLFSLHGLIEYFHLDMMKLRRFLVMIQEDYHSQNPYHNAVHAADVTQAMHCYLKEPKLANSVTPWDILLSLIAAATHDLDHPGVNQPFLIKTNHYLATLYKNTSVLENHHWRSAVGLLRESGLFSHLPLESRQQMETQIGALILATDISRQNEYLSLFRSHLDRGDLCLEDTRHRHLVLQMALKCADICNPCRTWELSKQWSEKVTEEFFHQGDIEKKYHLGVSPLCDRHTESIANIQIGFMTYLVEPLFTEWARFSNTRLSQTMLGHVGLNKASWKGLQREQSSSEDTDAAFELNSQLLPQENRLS

The first test concerns the target T1, Human CB2 receptors (Homo sapiens, UniProt P34972).
T1 construct: expressed in transfected cells; host or cells: CHO cells
Briefly: In vitro signaling assay: inhibition of forskolin-induced cAMP production in human CB2 receptor expressing CHO cells. The conditions noted are these: 10 μM forskolin, 15 minutes at room temperature. It is filed as cell-based. As to the method:
Human CB2 receptors expressed CHO cells were used for the assays. Cells were dispersed seeded in 96-well plates in a density of 5×10^4 cells/well, and were subjected to experiment the next day. After removing the culture media 1 mM isobutylmethylxanthine (IBMX) solution was added, and cells were incubated for 10 minutes at room temperature. Next, a mixture of 10 μM forskolin and the compound of the present invention was added. After additional incubation for 15 minutes at room temperature, the culture supernatant was discarded and 200 μl of lysis reagent (attached to a cAMP EIA) was added. The amounts of cAMP of the lysate were determined by a cAMP EIA kit (Amersham) under conditions of the forskolin-induced cAMP production. The compound of the present invention was dissolved in DMSO and the solution was diluted to adjust the final concentration of DMSO to 0.1%. IC50 values were calculated from the inhibitory ratio of the compound of the present invention toward the amount of the forskolin-induced cAMP production. By the same experiment using CHO cells, it was confirmed that this inhibitory effect toward cAMP production by the compound was mediated via the human CB2 receptors.
(cAMP levels reflect the balance of adenylyl cyclase and phosphodiesterase activity.)
In general, pIC50 refers to the negative decadic logarithm of the IC50, by convention in mol/L. The compound `CC1(C)Cc2cc(C#N)c(C#N)cc2/C(=C/C(=O)C2CCOCC2)N1` [46(3), (Z)-2-(6,7-dicyano-3,3-dimethyl-3,4-dihydro-(2H)-isoquinolin-1-ylidene)-1-(tetrahydropyran-4-yl)ethan-1-one] had a negative logarithm of the IC50 (pIC50) of 8.28.

As to `Cc1cc2c(cc1O)/C(=C/C(=O)C13CC4CC(CC(C4)C1)C3)NC(C)(C)C2` [47(4), (Z)-2-(7-hydroxy-3,3,6-trimethyl-3,4-dihydro-(2H)-isoquinolin-1-ylidene)-1-(adamantan-1-yl)ethan-1-one], the pIC50 was 8.28.

On to `Cc1cc2c(cc1O)/C(=C/C(=O)C1CCCCCC1)NC(C)(C)C2` [47(6), (Z)-2-(7-hydroxy-3,3,6-trimethyl-3,4-dihydro-(2H)-isoquinolin-1-ylidene)-1-cycloheptylethan-1-one], for which the negative logarithm of the IC50 (pIC50) was 8.39.

`COc1ccc2c(c1)C(C)(C)N/C2=C\C(=O)c1ccccc1OC` [57(2), (Z)-2-(5-methoxy-3,3-dimethyl-2,3-dihydro-(2H)-isoindol-1-ylidene)-1-(2-methoxyphenyl)ethan-1-one] had a pIC50 of 8.48.

A further test addresses T2, PDE7 (Homo sapiens, UniProt Q13946).
Experiment: not given
The conditions noted are these: J. Biol. Chem., 268, 12925 (1993); cited from earlier work.
Consider `COc1ccc(C2CNC(=O)C2)cc1OC1CCCC1` (stereo not shown) [rolipram], for which the “inhibition of PDE7” value was “not inhibited”.

The next test has as its target T2, PDE7. Kind of test: In vitro enzyme assay: PDE7 inhibitory activity. It is filed as biochemical. The conditions noted are these: PDE7 fraction from HuT78 cells, 30 minutes at room temperature. On the set-up: endogenous in cells; host or cells: HuT78 cells; soluble fraction separated on a MonoQ anion-exchange column. Here is the method:
HuT78 cells (derived from human T cell lymphocyte) were cultured in PRMI1640 medium containing 10% bovine fetus serum. 2 L of cells (approximately 8×10^8 cells) were collected, and they were homogenized in a buffer [50 mmol/l tris hydrochloric acid buffer containing 1 mmol/l dithiothreitol (DTT), 2 mmol/l ethylenediamine tetraacetate disodium (EDTA-2Na). After centrifugation (50,000 rpm, 4° C., 1 hour), the supernatant was collected, and filtered over 0.22 μm filter and the filtrate was fractionated by column chromatography on MonoQ (Pharmacia, hard negative ion exchange column) using the filtrate as soluble portion. The PDE activity of the fraction eluted by the concentration gradient of NaCl of 0-0.8 mol/L was measured using 1 μmol/l of cAMP as a substrate. Fractions where PDE activity is not inhibited by 10 μmol/l of rolipram ([…]) are collected. As to the PDE activity of these fractions, substrate-specificity against cAMP and Michaelis-Menten constant were measured and sensitivity to rolipram was confirmed. Then the fractions which show specificity and high affinity to cAMP which are non-sensitive fractions to rolipram were identified as PDE7. The fractions were used as an enzyme liquor for the measurement of PDE inhibitory activity.
PDE7 inhibitory activity of the compound of the present invention of was evaluated by the following method. 70 μl of diluted enzyme solution, 10 μl of the solution of the compound of the present invention (10% in DMSO), 10 μl of reaction buffer solution [50 mmol/l MgCl2, 1 mg/ml bovine serum albumin, 200 mmol/l tris hydrochloric acid buffer (pH 8.0) containing 40 mmol/l 2-mercaptoethanol] in 96 well plate and it was incubated for 30 minutes at room temperature. It was microwaved for 2.5 minutes to terminate the reaction. It was centrifuged (2,000 rpm for 1 minute) and thereto was added 10 μl of 1 mg/ml snake venom (Sigma, cat. V7000) and it was incubated for 30 minutes at room temperature. The […] (50 μl) was applied to alumina column (100 μl). Purified ^3H-adenosine was eluted with 0.005N hydrochloric acid (80 μl) and its radioactivity of the elute was measured.
PDE7 inhibitory activity of the present invention was evaluated by the activity inhibitory percentage calculated from the following equation. Activity inhibitory percentage (%)=(1-radioactivity in the presence of the compound of the present invention/radioactivity in the absence of the compound of the present invention)×100
In the case of `COc1ccc2c(c1)/C(=C/C(=O)c1ccc(C#N)cc1)NC(C)(C)C2` [11(35), (Z)-2-(7-methoxy-3,3-dimethyl-3,4-dihydro-(2H)-isoquinolin-1-ylidene)-1-(4-cyanophenyl)ethan-1-one], the pIC50 is 6.82.

For the compound `COc1ccccc1C(=O)/C=C1\NC(C)(C)Cc2ccc(Cl)cc21` [11(43), (Z)-2-(7-chloro-3,3-dimethyl-3,4-dihydro-(2H)-isoquinolin-1-ylidene)-1-(2-methoxyphenyl)ethan-1-one], the pIC50 is 6.01. Against the preceding compound, the pIC50 is 0.81 log units lower.

In turn, `CC1(C)Cc2ccc(Cl)cc2/C(=C/C(=O)C23CC4CC(CC(C4)C2)C3)N1` [11(79), (Z)-2-(7-chloro-3,3-dimethyl-3,4-dihydro-(2H)-isoquinolin-1-ylidene)-1-(adamantan-1-yl)ethan-1-one] gave a negative-log IC50 (pIC50) of 6.12.

Consider `CNc1ccc2c(c1)/C(=C/C(=O)c1ccc(C#N)cc1)NC(C)(C)C2` [11(162), (Z)-2-(7-methylamino-3,3-dimethyl-3,4-dihydro-(2H)-isoquinolin-1-ylidene)-1-(4-cyanophenyl)ethan-1-one], for which the negative-log IC50 (pIC50) was 6.43.

Take `COc1ccc2c(c1)CC(C)(C)N/C2=C\C(=O)C1CCCCC1` [12(7), (Z)-2-(6-methoxy-3,3-dimethyl-3,4-dihydro-(2H)-isoquinolin-1-ylidene)-1-cyclohexylethan-1-one]: the negative logarithm of the IC50 (pIC50) is 6.57.

`COc1ccccc1C(=O)/C=C1\NC(C)(C)Cc2cc(Cl)ccc21` [12(15), (Z)-2-(6-chloro-3,3-dimethyl-3,4-dihydro-(2H)-isoquinolin-1-ylidene)-1-(2-methoxyphenyl)ethan-1-one] showed a pIC50 of 5.96.

Consider `COc1ccc2c(c1)/C(=C/C(=O)c1ccc(N)cc1)NC2(C)C` [Example 58, (Z)-2-(6-methoxy-3,3-dimethyl-2,3-dihydro-(2H)-isoindol-1-ylidene)-1-(4-aminophenyl)ethan-1-one], for which the pIC50 was 7.64. This pIC50 lies 1.68 log units higher than the previous one.

As to `COc1ccc2c(c1)/C(=C/C(=O)c1ccc(NC(N)=O)cc1)NC(C)(C)C2` [Example 73, (Z)-2-(7-methoxy-3,3-dimethyl-3,4-dihydro-(2H)-isoquinolin-1-ylidene)-1-(4-((aminocarbonyl)amino)phenyl)ethan-1-one], the negative-log IC50 (pIC50) was 7.57.
